Reference: ChEMBL document CHEMBL1201862, “PubChem BioAssay data set” (2004)
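Protocol summary: plate cells (96-well), add compound at 5 concentrations, incubate 48 h, interpolate endpoints linearly. GI50 is the concentration that inhibits growth by half.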 The source made the active and inactive calls. Rule as the data show it: active = GI50 up to about 1.1 µM and inactive = higher.

Tests used:
Assay in all cases: NCI anticancer screen, dose series, 48 h
SF-268 = system: SF-268
Hs-578T = system: Hs-578T
A498 = system: A498
UO-31 = system: UO-31
PC-3 = system: PC-3
M14 = system: M14
ACHN = system: ACHN
SK-MEL-2 = system: SK-MEL-2
KM12 = system: KM12
HOP-92 = system: HOP-92
HL-60 = system: HL-60
SF-295 = system: SF-295
EKVX = system: EKVX
BT-549 = system: BT-549
MOLT-4 = system: MOLT-4
NCI-H460 = system: NCI-H460
OVCAR-4 = system: OVCAR-4
DU-145 = system: DU-145
MDA-N = system: MDA-N
CCRF-CEM = system: CCRF-CEM

Measured: GI50

Cc1ccc(S(=O)(=O)NC2=NS(=O)(=O)c3cc(C)c(Cl)cc3S2)cc1
inactive: SF-268 > 100 µM | Hs-578T > 100 µM | A498 > 100 µM | UO-31 > 100 µM | PC-3 45.5 µM | M14 81.8 µM | ACHN > 100 µM | SK-MEL-2 > 100 µM | KM12 > 100 µM | HOP-92 24.4 µM | HL-60 > 100 µM | SF-295 70.5 µM | EKVX > 100 µM | BT-549 > 100 µM | MOLT-4 39.1 µM | NCI-H460 > 100 µM | OVCAR-4 > 100 µM | DU-145 > 100 µM

C[C@@H](NC(=O)Nc1cccc(C(=O)Nc2cc(C(C)(C)C)ccc2C(=O)O)n1)c1ccccc1
inactive: SF-268 46.8 µM | Hs-578T 40.4 µM | A498 64.1 µM | UO-31 40.1 µM | PC-3 25.1 µM | M14 31 µM | MDA-N 38.4 µM | ACHN 35.2 µM | SK-MEL-2 18.1 µM | KM12 55.1 µM | HL-60 45.3 µM | SF-295 25.2 µM | EKVX 52.5 µM | BT-549 37 µM | MOLT-4 38 µM | NCI-H460 52.1 µM | OVCAR-4 50.1 µM | DU-145 40.2 µM

Cc1ccc(C(=O)Oc2ccc(/C=C3\CCC/C(=C\c4ccc(OC(=O)c5ccc(C)cc5)cc4)C3=O)cc2)cc1
inactive: SF-268 > 100 µM | Hs-578T > 100 µM | CCRF-CEM > 100 µM | UO-31 > 100 µM | PC-3 > 100 µM | M14 > 100 µM | MDA-N > 100 µM | ACHN > 100 µM | SK-MEL-2 > 100 µM | KM12 > 100 µM | HOP-92 > 100 µM | HL-60 > 100 µM | SF-295 > 100 µM | EKVX > 100 µM | BT-549 > 100 µM | MOLT-4 > 100 µM | NCI-H460 > 100 µM | OVCAR-4 > 100 µM | DU-145 > 100 µM

OC1CCC(COC(c2ccccc2)(c2ccccc2)c2ccccc2)O1 (stereo not given)
inactive: SF-268 16.9 µM | Hs-578T 16.6 µM | CCRF-CEM 14.2 µM | A498 20.2 µM | UO-31 17.3 µM | PC-3 10.7 µM | M14 18.7 µM | MDA-N 18.7 µM | ACHN 17 µM | SK-MEL-2 18.1 µM | KM12 17.7 µM | HL-60 18.2 µM | SF-295 15.9 µM | EKVX > 10 µM | BT-549 23.8 µM | MOLT-4 11.1 µM | NCI-H460 21 µM | DU-145 20.8 µM

Clc1ccc(-c2nn3c(CCCCCCCCc4nnc5sc(-c6ccc(Cl)cc6)nn45)nnc3s2)cc1
inactive: SF-268 23.2 µM | Hs-578T 27.2 µM | CCRF-CEM 11.8 µM | A498 24.8 µM | UO-31 12.6 µM | PC-3 11.5 µM | M14 18.7 µM | MDA-N 18.2 µM | ACHN 30.1 µM | SK-MEL-2 29.8 µM | KM12 11.9 µM | HOP-92 31 µM | SF-295 17.6 µM | EKVX 20 µM | BT-549 24.8 µM | MOLT-4 7.69 µM | NCI-H460 26.9 µM | OVCAR-4 8.85 µM | DU-145 11.7 µM

CC1=NN(c2nc(N)nc(/C(C#N)=C/c3ccncc3)n2)C(C)(C)C1
inactive: SF-268 > 100 µM | Hs-578T > 100 µM | CCRF-CEM 49.3 µM | A498 60.3 µM | UO-31 > 100 µM | PC-3 > 100 µM | M14 > 100 µM | ACHN > 100 µM | SK-MEL-2 > 100 µM | KM12 > 100 µM | HOP-92 > 100 µM | HL-60 52.1 µM | SF-295 > 100 µM | EKVX > 100 µM | BT-549 > 100 µM | MOLT-4 > 100 µM | NCI-H460 > 100 µM | OVCAR-4 > 100 µM | DU-145 47.4 µM

O=C1c2ccccc2C(=O)N1CCCCCCNOCCCN1C(=O)c2ccccc2C1=O
inactive: SF-268 > 100 µM | Hs-578T > 100 µM | CCRF-CEM 25.6 µM | A498 21.6 µM | UO-31 34 µM | PC-3 28.3 µM | M14 21.3 µM | MDA-N 31.6 µM | ACHN 36.7 µM | SK-MEL-2 16.3 µM | KM12 27.1 µM | HOP-92 34 µM | SF-295 29.4 µM | EKVX 25.6 µM | BT-549 30.3 µM | MOLT-4 19.3 µM | NCI-H460 44.2 µM | OVCAR-4 22.3 µM | DU-145 51.8 µM
